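96-well plates; 48 h exposure; 5 concentrations. Endpoints by linear interpolation between flanking doses. Not reached: highest tested concentration assigned. The concentration for 50% growth inhibition is given as GI50. At the TGI there is no net growth.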
Key:
Assay in all cases: DTP human tumour cell line panel, 48 h
[1] = tested on: HT29 colon
[2] = tested on: OVCAR-8 ovarian
[3] = tested on: MALME-3M melanoma
[4] = tested on: A549 NSCLC
[5] = tested on: HCT-15 colon
[6] = tested on: SR leukemia
[7] = tested on: U251 CNS
[8] = tested on: HOP-62 NSCLC
[9] = tested on: OVCAR-3 ovarian
[10] = tested on: A498 renal

| Structure (SMILES) | TGI [1] [µM] | TGI [2] [µM] | TGI [3] [µM] | TGI [4] [µM] | TGI [5] [µM] | TGI [6] [µM] | TGI [7] [µM] | GI50 [1] [µM] | GI50 [8] [µM] | TGI [8] [µM] | GI50 [2] [µM] | GI50 [3] [µM] | GI50 [9] [µM] | TGI [9] [µM] | GI50 [4] [µM] | GI50 [5] [µM] | GI50 [6] [µM] | GI50 [7] [µM] | GI50 [10] [µM] | TGI [10] [µM] |
| --- | --- | --- | --- | --- | --- | --- | --- | --- | --- | --- | --- | --- | --- | --- | --- | --- | --- | --- | --- | --- |
| C(=NCCN=Cc1cccc2ccccc12)c1cccc2ccccc12 | > 100 | > 100 | > 100 | > 100 | > 100 | > 100 | > 100 | – | – | – | – | – | – | – | – | – | – | – | – | – |
| CCCCCCCCCCCCCCCC(N)c1ccccc1 (configuration not stated) | 3.32 | 4.89 | 3.28 | 3.56 | 3.09 | 2.43 | 3.2 | 1.66 | 1.23 | 2.62 | 2.22 | 1.6 | 1.64 | 3.08 | 1.78 | 1.67 | 0.558 | 1.68 | – | – |
| COC(=O)C1=C(O)C(C(=O)OC)[C@@]2(O)[C@@H](C(=O)OC)C(c3ccccc3Cl)C[C@@H]1[C@@H]2C(=O)OC (some centres not stated) | 32.6 | 34 | 29.9 | 53.9 | 18 | – | 15 | 6.28 | 10.4 | 23.8 | 5.81 | 10.6 | 4.48 | 16.1 | 9.04 | 4.7 | – | 3.76 | 14.2 | 32.4 |
| CC1SC(c2cccc(Cl)c2)N(NC(=O)C(O)c2ccccc2)C1=O (configuration not stated) | > 100 | > 100 | > 100 | > 100 | > 100 | – | > 100 | > 100 | > 100 | > 100 | > 100 | > 100 | > 100 | > 100 | 86.7 | > 100 | – | > 100 | > 100 | > 100 |
| CC1CC2(C)CC(=O)C1C1C(=O)N(CCN3CCOCC3)C(=O)C12 (configuration not stated) | > 100 | > 100 | > 100 | > 100 | > 100 | > 100 | > 100 | > 100 | > 100 | > 100 | > 100 | > 100 | – | – | > 100 | > 100 | > 100 | > 100 | > 100 | > 100 |
| O=C(Nc1ccc(N2CCNCC2)cn1)c1[nH]ncc1Nc1ncnc2sc3c(c12)CCC3 | – | 5 | – | 3.5 | – | 0.872 | – | – | 1.83 | 4.81 | 2.17 | – | 1.84 | 3.62 | 1.67 | – | 0.246 | – | 5.06 | 24.6 |
| COc1ccc([Se]c2ccc(OC)cc2)cc1 | > 100 | > 100 | > 100 | > 100 | > 100 | – | > 100 | – | – | > 100 | – | – | – | > 100 | – | – | – | – | – | > 100 |
| CCN(CC)c1ccc(N=C2C=CC(=C(C#N)C#N)c3ccccc32)c(C)c1 | 24.9 | 7.28 | 4.51 | 5.33 | 10.2 | – | 3.44 | – | – | 6.25 | – | – | – | 3.82 | – | – | – | – | – | – |
| NC(C(=O)O)c1ccc(C(=O)O)cc1 (configuration not stated) | > 100 | > 100 | > 100 | > 100 | > 100 | > 100 | > 100 | – | – | > 100 | – | – | – | > 100 | – | – | – | – | – | – |
| COC(=O)C(C(=O)C(=O)Nc1ccc(N)cc1[N+](=O)[O-])c1nc2ccc(Cl)cc2[nH]c1=O (configuration not stated) | > 100 | > 100 | > 100 | > 100 | > 100 | – | – | – | – | > 100 | – | – | – | > 100 | – | – | – | – | – | > 100 |
| O=[N+]([O-])c1ccc2nc(=S)[nH]n2c1 | > 100 | > 100 | > 100 | > 100 | > 100 | > 100 | > 100 | – | – | > 100 | – | – | – | – | – | – | – | – | – | > 100 |
| N#CC1([N+](=O)[O-])C=C1c1ccccc1 (configuration not stated) | > 100 | > 100 | > 100 | > 100 | > 100 | 70.3 | > 100 | – | – | > 100 | – | – | – | > 100 | – | – | – | – | – | – |
| Cc1c(C(=O)Nc2ccc(Cl)cc2)nc(N)nc1-c1cccc(Cl)c1 | > 100 | > 100 | > 100 | > 100 | – | > 100 | > 100 | – | – | > 100 | – | – | – | > 100 | – | – | – | – | – | – |
| COc1ccc(-c2cc(=O)c3cccnc3[nH]2)cc1 | 38.4 | > 100 | > 100 | > 100 | > 100 | – | > 100 | – | – | > 100 | – | – | 29.9 | > 100 | – | – | – | 54.1 | – | > 100 |
| CC(=O)Nc1ccccc1S(=O)c1ccccc1 (configuration not stated) | > 100 | > 100 | > 100 | > 100 | > 100 | – | > 100 | – | – | > 100 | – | – | – | > 100 | – | – | – | – | – | > 100 |
| NNC(=O)N/N=C1/C(=O)N(c2ccc(Cl)c(Cl)c2)C(=O)C(=O)C1c1nc2ccccc2o1 (configuration not stated) | > 100 | > 100 | > 100 | > 100 | > 100 | – | > 100 | – | – | > 100 | – | – | – | > 100 | – | – | – | – | – | > 100 |
| CC(=O)CC(=O)ON(C)C(=O)Cc1ccccc1 | > 100 | > 100 | > 100 | > 100 | > 100 | > 100 | > 100 | – | – | > 100 | – | – | – | > 100 | – | – | – | – | – | – |
| CN(C)c1ccc(/C=N/NC(=O)c2cnc3ccccc3c2)cc1 | – | > 100 | > 100 | > 100 | > 100 | – | > 100 | – | – | > 100 | – | – | – | > 100 | – | – | – | – | – | > 100 |
| CC1(C)N=C(N)N=C(N)N1c1ccc(CCC(=O)Nc2cccc(S(=O)(=O)F)c2)cc1 | > 100 | > 100 | > 100 | > 100 | > 100 | – | > 100 | 5.62 | 6.56 | > 100 | 6.46 | 21.3 | 54.1 | > 100 | 3.32 | 30.7 | – | 4.98 | 20.1 | > 100 |
| CCCCCC/C(CC(=O)CCC(=O)NCCc1ccccc1)=N\NC(=O)c1ccc2ccccc2c1O | > 100 | > 100 | > 100 | > 100 | – | – | > 100 | – | – | > 100 | – | – | – | > 100 | – | – | – | – | – | – |

From PubChem BioAssay (NCI)
